Experimental data taken from PubChem BioAssay (NCI).
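Where inhibition never reached the appropriate level, the endpoint shown equals the highest concentration tested. Otherwise, values were interpolated linearly from a five-concentration, 48-hour dose response in 96-well plates. GI50 marks 50% less growth. TGI denotes the concentration required for complete inhibition of growth.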

Experiments:
Assay in all cases: NCI tumour cell line growth inhibition, 48 h
[1] = system: M14 melanoma
[2] = system: TK-10 renal
[3] = system: HCC-2998 colon
[4] = system: NCI/ADR-RES ovarian
[5] = system: T-47D breast
[6] = system: SF-539 CNS
[7] = system: MALME-3M melanoma
[8] = system: HL-60(TB) leukemia
[9] = system: NCI-H23 lung
[10] = system: SNB-19 CNS
[11] = system: HT29 colon
[12] = system: MDA-MB-231 breast
[13] = system: HCT-15 colon
[14] = system: SK-MEL-28 melanoma
[15] = system: SW-620 colon
[16] = system: MDA-N
[17] = system: U251 CNS
[18] = system: IGROV1 ovarian
[19] = system: EKVX NSCLC
[20] = system: OVCAR-5 ovarian
[21] = system: NCI-H226 lung
[22] = system: COLO 205 colon
[23] = system: MCF7 breast
[24] = system: SF-268 CNS
[25] = system: RXF 393 renal
[26] = system: OVCAR-8 ovarian
[27] = system: HOP-92 NSCLC
[28] = system: CCRF-CEM leukemia
[29] = system: NCI-H460 lung
[30] = system: LOX IMVI melanoma
[31] = system: 786-0 renal
[32] = system: SNB-75 CNS
[33] = system: SN12C renal
[34] = system: MDA-MB-435
[35] = system: NCI-H522 lung
[36] = system: KM12 colon
[37] = system: CAKI-1 renal
[38] = system: HCT-116 colon
[39] = system: DU-145 prostate
[40] = system: SK-MEL-2 melanoma
[41] = system: SK-OV-3 ovarian
[42] = system: OVCAR-3 ovarian
[43] = system: SF-295 CNS
[44] = system: HOP-62 NSCLC
[45] = system: UACC-62 melanoma
[46] = system: K-562 leukemia
[47] = system: ACHN renal
[48] = system: OVCAR-4 ovarian
[49] = system: A498 renal
[50] = system: PC-3 prostate
[51] = system: A549 NSCLC
[52] = system: UO-31 renal
[53] = system: MOLT-4 leukemia
[54] = system: UACC-257 melanoma
[55] = system: SK-MEL-5 melanoma
[56] = system: SR leukemia
[57] = system: HS 578T breast
[58] = system: RPMI-8226 leukemia
[59] = system: BT-549 breast

In the case of `COC(=O)CNC(=O)CCSc1nnc(COc2ccc(Cl)cc2)n1-c1ccccc1`, the TGI [1] is reported as 65.5 µM, the TGI [2] is reported as 35 µM and the TGI [3] is reported as over 100 µM. For the same compound, the TGI [4] was over 100 µM, the TGI [5] was over 100 µM and the TGI [6] was over 100 µM. It also gave a TGI [7] of 58.3 µM, a TGI [8] of over 100 µM and a TGI [9] of over 100 µM. For the same compound, the TGI [10] was over 100 µM, the TGI [11] was over 100 µM and the TGI [12] was 49.1 µM. It also gave a TGI [13] of over 100 µM, a TGI [14] of 56.9 µM and a TGI [15] of over 100 µM. The TGI [16] was 37.6 µM, the TGI [17] was over 100 µM and the TGI [18] was 98.7 µM. For the same compound, the TGI [19] was over 100 µM, the TGI [20] was over 100 µM and the TGI [21] was 84.6 µM. For the same compound, the TGI [22] was over 100 µM, the TGI [23] was over 100 µM and the TGI [24] was 48.5 µM. For the same compound, the TGI [25] was 67.5 µM, the TGI [26] was over 100 µM and the TGI [27] was over 100 µM. The TGI [28] was over 100 µM, the TGI [29] was over 100 µM and the TGI [30] was over 100 µM. It also gave a TGI [31] of 42.6 µM, a TGI [32] of 40.7 µM and a TGI [33] of 45.9 µM. For the same compound, the TGI [34] was 60.4 µM, the TGI [35] was 33.6 µM and the TGI [36] was over 100 µM. The TGI [37] was 26.7 µM, the TGI [38] was over 100 µM and the TGI [39] was 51.5 µM. For the same compound, the TGI [40] was 48.8 µM, the TGI [41] was over 100 µM and the TGI [42] was over 100 µM. It also gave a TGI [43] of over 100 µM, a TGI [44] of over 100 µM and a TGI [45] of 44 µM. For the same compound, the TGI [46] was over 100 µM, the TGI [47] was over 100 µM and the TGI [48] was over 100 µM. For the same compound, the TGI [49] was over 100 µM, the TGI [50] was over 100 µM and the TGI [51] was over 100 µM. The TGI [52] was over 100 µM, the TGI [53] was over 100 µM and the TGI [54] was 38.8 µM.
With `CCC(C)C1=NC(C(=O)N/C=C\c2c[nH]c3cc(Br)c(Br)cc23)(C(C)C)NC1=O` (centres undefined) the GI50 [1] was 14 µM, the TGI [1] was 27.3 µM and the GI50 [2] was 18.5 µM. The TGI [2] was 35.7 µM, the GI50 [55] was 11.7 µM and the TGI [55] was 25.1 µM. For the same compound, the GI50 [4] was 27.3 µM, the TGI [4] was over 100 µM and the GI50 [6] was 21 µM. The TGI [6] was 42.5 µM, the GI50 [7] was 20.6 µM and the TGI [7] was 39.3 µM. For the same compound, the GI50 [8] was 33.7 µM, the TGI [8] was 59.6 µM and the GI50 [9] was 16 µM. It also gave a TGI [9] of 29.4 µM, a GI50 [10] of 18.5 µM and a TGI [10] of 35 µM. It also gave a GI50 [11] of 18.3 µM, a TGI [11] of 44.4 µM and a GI50 [12] of 17.4 µM. For the same compound, the TGI [12] was 39.3 µM, the GI50 [13] was 28.1 µM and the TGI [13] was 79.6 µM. The GI50 [14] was 15 µM, the TGI [14] was 32.7 µM and the GI50 [15] was 16.9 µM. For the same compound, the TGI [15] was 38.2 µM, the GI50 [16] was 15.4 µM and the TGI [16] was 30 µM. The GI50 [17] was 14.1 µM, the TGI [17] was 29 µM and the GI50 [18] was 6.36 µM. For the same compound, the TGI [18] was 19.7 µM, the GI50 [19] was 5.98 µM and the TGI [19] was 20 µM. For the same compound, the GI50 [20] was 15.4 µM, the TGI [20] was 29 µM and the GI50 [56] was 17 µM. For the same compound, the TGI [56] was 37.1 µM, the GI50 [22] was 14 µM and the TGI [22] was 29.3 µM. For the same compound, the GI50 [23] was 13.6 µM, the TGI [23] was 29.6 µM and the GI50 [24] was 15 µM. It also gave a TGI [24] of 30.1 µM, a GI50 [25] of 15.4 µM and a TGI [25] of 29.2 µM. The GI50 [26] was 32.3 µM, the TGI [26] was over 100 µM and the GI50 [28] was 18.2 µM. The TGI [28] was over 100 µM, the GI50 [29] was 12.9 µM and the TGI [29] was 26.7 µM. The GI50 [30] was 16.6 µM, the TGI [30] was 31.9 µM and the GI50 [31] was 20.2 µM. It also gave a TGI [31] of 42.9 µM, a GI50 [32] of 3.37 µM and a TGI [32] of 10.2 µM. It also gave a GI50 [33] of 18.3 µM, a TGI [33] of 37.5 µM and a GI50 [34] of 12 µM. The TGI [34] was 24.4 µM, the GI50 [57] was 21.4 µM and the TGI [57] was 68.4 µM. It also gave a GI50 [35] of 13.5 µM, a TGI [35] of 26.4 µM and a GI50 [36] of 18.5 µM. The TGI [36] was 44.3 µM, the GI50 [37] was 12.2 µM and the TGI [37] was 26.8 µM. It also gave a GI50 [38] of 15.6 µM, a TGI [38] of 31.3 µM and a GI50 [58] of 8.75 µM. For the same compound, the TGI [58] was 39 µM, the GI50 [39] was 14.3 µM and the TGI [39] was 27.4 µM. It also gave a GI50 [40] of 12.3 µM, a TGI [40] of 26.7 µM and a GI50 [59] of 23.7 µM. The TGI [59] was 71.2 µM, the GI50 [41] was 18.6 µM and the TGI [41] was 34.9 µM. The GI50 [42] was 5.38 µM, the TGI [42] was 18.4 µM and the GI50 [43] was 15.9 µM. The TGI [43] was 30.1 µM, the GI50 [44] was 19.8 µM and the TGI [44] was 36.3 µM. The GI50 [45] was 12 µM, the TGI [45] was 26.9 µM and the GI50 [46] was 16.5 µM. The TGI [46] was 35.8 µM, the GI50 [47] was 18.3 µM and the TGI [47] was 39.6 µM. It also gave a GI50 [48] of 11.1 µM, a TGI [48] of 32.3 µM and a GI50 [49] of 17.8 µM. For the same compound, the TGI [49] was 35 µM, the GI50 [50] was 10.1 µM and the TGI [50] was 25.1 µM. The GI50 [51] was 11.7 µM, the TGI [51] was 26.5 µM and the GI50 [52] was 12.2 µM. The TGI [52] was 24.6 µM, the GI50 [53] was 15.2 µM and the TGI [53] was 30.3 µM. It also gave a GI50 [54] of 15.3 µM and a TGI [54] of 28.6 µM.
